Laboratory results as given in patent publication EP4603105A1, “PHARMACEUTICAL COMPOSITION CONTAINING CYCLIC COMPOUND HAVING SELECTIVE KRAS INHIBITORY EFFECT AGAINST HRAS AND NRAS” (CHUGAI SEIYAKU KABUSHIKI KAISHA, priority 2022, dated 2024).
pIC50: −log10 of the molar value. *1 amine or outer side, *2 acyl side, *3 side chain or, on linkers, in order; H or OH if unused. Where a SMILES comes first, the peptide text is derived from it. Bridges are numbered along the chain shown (N, C = ends). [ ]: non-standard residue; d: D form. The star is where a group is joined. hPhe(3-Cl-4-CF3) = N[C@@H](CCc1ccc(C(F)(F)F)c(Cl)c1)C(=O)O; NEtPhe(4-CF3) = CCN[C@@H](Cc1ccc(C(F)(F)F)cc1)C(=O)O; NEtPhe(4-Me) = CCN[C@@H](Cc1ccc(C)cc1)C(=O)O; NMeAbu(4,4,4-F3) = CN[C@@H](CC(F)(F)F)C(=O)O; NMePhe(4-Me) = CN[C@@H](Cc1ccc(C)cc1)C(=O)O; X30 = CCN([C@H](C(=O)[*:2])C1CCCC1)[*:1]; NMeGly(cPent) = CN[C@H](C(=O)O)C1CCCC1; NMeD = CN[C@@H](CC(=O)O)C(=O)O; NMeL = CN[C@@H](CC(C)C)C(=O)O; Morpholide = C1CN(*)CCO1; NMeA = CN[C@@H](C)C(=O)O; Ac5c = NC1(C(=O)O)CCCC1; NEtG = CCNCC(=O)O; Sar = CNCC(=O)O

Experiments:
[1] = biological target: GDP-bound NRAS wild-type protein (Homo sapiens, UniProt P01111); assay: Binding to NRAS by surface plasmon resonance (SPR), KD and KD ratio to KRAS; conditions: ratio of KD for GDP-bound NRAS wild-type protein to KD for KRAS
Sequence of GDP-bound NRAS wild-type protein (P01111 whole entry): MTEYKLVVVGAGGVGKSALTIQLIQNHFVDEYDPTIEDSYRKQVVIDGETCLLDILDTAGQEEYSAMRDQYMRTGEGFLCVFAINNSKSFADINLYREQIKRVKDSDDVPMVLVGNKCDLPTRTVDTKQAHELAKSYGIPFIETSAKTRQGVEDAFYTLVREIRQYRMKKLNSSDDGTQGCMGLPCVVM
Method: (§1) Surface plasmon resonance was used to analyze the binding affinity of compounds for KRAS, NRAS, and HRAS. The apparatus used was Biacore 8K, 8K+, or T200 (GE Healthcare), and the running buffer used was HBS (10 mM HEPES-NaOH, 150 mM NaCl, pH 7.4) containing 1 mM DTT, 10 mM MgCl2, 0.01% Tween 20, 10 µM GDP, and 4% DMSO.
(§2) Biotinylated Avi-tag fusion KRAS, NRAS, and HRAS proteins were expressed in E. coli BL21 (DE3) strains, and after cells were homogenized, they were purified using Streptavidin Mutein Matrix and Superdex 75. After purification, GDP-loaded KRAS, NRAS, and HRAS proteins were immobilized on the surface of Sensor Chip CAP (Cytiva) coated with Biotin CAPture Reagent in an immobilization amount of about 100 to 300 RU. Binding of each compound was evaluated by the Single Cycle Kinetics method, and a running buffer or a compound solution was added to the RAS protein non-immobilized surface and the immobilized surface to obtain a binding response. The flow rate was set to 100 µL/min, and in the compound-adding cycle, compound solutions having different concentrations were intermittently added for 75 seconds each, starting from a low concentration. […] In the blank cycle, a running buffer was intermittently added and not the compound solution. The Biotin CAPture Reagent and RAS proteins were immobilized for each cycle, and at the end of each cycle, the sensor chip was regenerated by the regeneration solution appended to the Biotin CAPture Kit (Cytiva). Measurement was carried out at 30°C.
(§3) The resulting sensorgram was subjected to curve fitting based on a 1:1 binding model on Biacore Insight Evaluation Software or T200 Evaluation Software, and thereby the dissociation constant KD of each compound with respect to KRAS, NRAS, and HRAS was determined. […] Blank indicates a compound from which the KD value with respect to NRAS or HRAS was not obtained.

[2] = biological target: HRAS wild-type protein (Homo sapiens, UniProt P01112); assay: Binding to HRAS by surface plasmon resonance (SPR), KD and KD ratio to KRAS; conditions: ratio of KD for HRAS wild-type protein to KD for KRAS
Sequence of HRAS wild-type protein (P01112 whole entry): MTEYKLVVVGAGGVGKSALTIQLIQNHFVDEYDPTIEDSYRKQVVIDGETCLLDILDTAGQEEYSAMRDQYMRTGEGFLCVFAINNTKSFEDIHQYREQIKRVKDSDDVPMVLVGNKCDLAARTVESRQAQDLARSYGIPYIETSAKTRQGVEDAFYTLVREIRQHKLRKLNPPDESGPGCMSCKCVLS
Method: as §1, §2, §3

[3] = test system: human lung cancer strain NCI-H441; type: cell-based
Procedure, shortened: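 Signal came from […] measured per well once the reagent was added. Beforehand, cells were cultured at 37°C and 5% carbon dioxide on a compound series serially diluted in dimethyl sulfoxide.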

| Compound | pIC50 [3] | NRAS /KRAS [1] | HRAS /KRAS [2] |
| --- | --- | --- | --- |
| CC[C@H](C)[C@@H]1NC(=O)[C@H](CC(C)C)N(C)C(=O)C[C@@H](C(=O)N2CCOCC2)N(C)C(=O)[C@H](C2CCCC2)N(C)C(=O)C2(CCCC2)NC(=O)[C@@H]2CCCN2C(=O)[C@H](CCc2ccc(C(F)(F)F)c(Cl)c2)NC(=O)CN(CC)C(=O)[C@H](Cc2ccc(C)cc2)N(C)C(=O)CN(C)C(=O)CN(C)C1=O [PP0025] ([NMeL]I[Sar][Sar][NMePhe(4-Me)][NEtG][hPhe(3-Cl-4-CF3)]P[Ac5c][NMeGly(cPent)][NMeD]-Morpholide; lactam N-11) | 7.56 | C (A compound having a KD ratio of 0.1 or more and less than 3 is denoted as C) | C (A compound having a KD ratio of 0.1 or more and less than 3 is denoted as C) |
| CC[C@H](C)[C@@H]1NC(=O)[C@H](CC(C)C)N(C)C(=O)C[C@@H](C(=O)N2CCOCC2)N(C)C(=O)[C@H](C2CCCC2)N(C)C(=O)C2(CCCC2)NC(=O)[C@@H]2CCCN2C(=O)[C@H](CCc2ccc(C(F)(F)F)c(Cl)c2)NC(=O)CN(C)C(=O)[C@H](Cc2ccc(C)cc2)N(CC)C(=O)CN(CC)C(=O)CN(C)C1=O [PP0027] ([NMeL]I[Sar][NEtG][NEtPhe(4-Me)][Sar][hPhe(3-Cl-4-CF3)]P[Ac5c][NMeGly(cPent)][NMeD]-Morpholide; lactam N-11) | 7.77 | C (A compound having a KD ratio of 0.1 or more and less than 3 is denoted as C) | C (A compound having a KD ratio of 0.1 or more and less than 3 is denoted as C) |
| CC[C@H](C)[C@@H]1NC(=O)[C@H](CC(C)C)N(C)C(=O)C[C@@H](C(=O)N2CCOCC2)N(C)C(=O)[C@H](C2CCCC2)N(C)C(=O)C2(CCCC2)NC(=O)[C@@H]2CCCN2C(=O)[C@H](CCc2ccc(C(F)(F)F)c(Cl)c2)NC(=O)CN(CC)C(=O)[C@H](Cc2ccc(C)cc2)N(C)C(=O)CN(CC)C(=O)CN(C)C1=O [PP0029] ([NMeL]I[Sar][NEtG][NMePhe(4-Me)][NEtG][hPhe(3-Cl-4-CF3)]P[Ac5c][NMeGly(cPent)][NMeD]-Morpholide; lactam N-11) | 7.58 | C (A compound having a KD ratio of 0.1 or more and less than 3 is denoted as C) | C (A compound having a KD ratio of 0.1 or more and less than 3 is denoted as C) |
| CC[C@H](C)[C@@H]1NC(=O)[C@H](CC(C)C)N(C)C(=O)C[C@@H](C(=O)N2CCOCC2)N(C)C(=O)[C@H](C2CCCC2)N(C)C(=O)C2(CCCC2)NC(=O)[C@@H]2CCCN2C(=O)[C@H](CCc2ccc(C(F)(F)F)c(Cl)c2)NC(=O)CN(CC)C(=O)[C@H](Cc2ccc(C)cc2)N(CC)C(=O)CN(CC)C(=O)CN(C)C1=O [PP0030] ([NMeL]I[Sar][NEtG][NEtPhe(4-Me)][NEtG][hPhe(3-Cl-4-CF3)]P[Ac5c][NMeGly(cPent)][NMeD]-Morpholide; lactam N-11) | 7.06 | C (A compound having a KD ratio of 0.1 or more and less than 3 is denoted as C) | C (A compound having a KD ratio of 0.1 or more and less than 3 is denoted as C) |
| CC[C@H](C)[C@@H]1NC(=O)[C@H](C)N(C)C(=O)C[C@@H](C(=O)N2CCOCC2)N(C)C(=O)[C@H](C2CCCC2)N(C)C(=O)C2(CCCC2)NC(=O)[C@@H]2CCCN2C(=O)[C@H](CCc2ccc(C(F)(F)F)c(Cl)c2)NC(=O)CN(C)C(=O)[C@H](Cc2ccc(C)cc2)N(CC)C(=O)CN(C)C(=O)CN(C)C1=O [PP0031] ([NMeA]I[Sar][Sar][NEtPhe(4-Me)][Sar][hPhe(3-Cl-4-CF3)]P[Ac5c][NMeGly(cPent)][NMeD]-Morpholide; lactam N-11) | 7.94 | B (a compound having 3 or more and less than 10 is denoted as B) | C (A compound having a KD ratio of 0.1 or more and less than 3 is denoted as C) |
| CC[C@H](C)[C@@H]1NC(=O)[C@H](CC(F)(F)F)N(C)C(=O)C[C@@H](C(=O)N2CCOCC2)N(C)C(=O)[C@H](C2CCCC2)N(C)C(=O)C2(CCCC2)NC(=O)[C@@H]2CCCN2C(=O)[C@H](CCc2ccc(C(F)(F)F)c(Cl)c2)NC(=O)CN(C)C(=O)[C@H](Cc2ccc(C)cc2)N(CC)C(=O)CN(C)C(=O)CN(C)C1=O [PP0032] ([NMeAbu(4,4,4-F3)]I[Sar][Sar][NEtPhe(4-Me)][Sar][hPhe(3-Cl-4-CF3)]P[Ac5c][NMeGly(cPent)][NMeD]-Morpholide; lactam N-11) | 7.57 | C (A compound having a KD ratio of 0.1 or more and less than 3 is denoted as C) | C (A compound having a KD ratio of 0.1 or more and less than 3 is denoted as C) |

Second part, led by results:

| pIC50 [3] | Compound | NRAS /KRAS [1] | HRAS /KRAS [2] |
| --- | --- | --- | --- |
| 8.35 | CC[C@H](C)[C@@H]1NC(=O)[C@H](CC(C)C)N(C)C(=O)C[C@@H](C(=O)N2CCOCC2)N(C)C(=O)[C@H](C2CCCC2)N(C)C(=O)C2(CCCC2)NC(=O)[C@@H]2CCCN2C(=O)[C@H](CCc2ccc(C(F)(F)F)c(Cl)c2)NC(=O)CN(C)C(=O)[C@H](Cc2ccc(C(F)(F)F)cc2)N(CC)C(=O)CN(C)C(=O)CN(C)C1=O [PP0023] ([NMeL]I[Sar][Sar][NEtPhe(4-CF3)][Sar][hPhe(3-Cl-4-CF3)]P[Ac5c][NMeGly(cPent)][NMeD]-Morpholide; lactam N-11) | B (a compound having 3 or more and less than 10 is denoted as B) | C (A compound having a KD ratio of 0.1 or more and less than 3 is denoted as C) |
| 6.99 | CC[C@H](C)[C@@H]1NC(=O)[C@H](CC(C)C)N(C)C(=O)C[C@@H](C(=O)N2CCOCC2)N(C)C(=O)[C@H](C2CCCC2)N(C)C(=O)C2(CCCC2)NC(=O)[C@@H]2CCCN2C(=O)[C@H](CCc2ccc(C(F)(F)F)c(Cl)c2)NC(=O)CN(C)C(=O)[C@H](C2CCCC2)N(CC)C(=O)CN(C)C(=O)CN(C)C1=O [PP0024] ([NMeL]I[Sar][Sar][X30][Sar][hPhe(3-Cl-4-CF3)]P[Ac5c][NMeGly(cPent)][NMeD]-Morpholide; lactam N-11) | B (a compound having 3 or more and less than 10 is denoted as B) | C (A compound having a KD ratio of 0.1 or more and less than 3 is denoted as C) |
| 7.26 | CC[C@H](C)[C@@H]1NC(=O)[C@H](CC(C)C)N(C)C(=O)C[C@@H](C(=O)N2CCOCC2)N(C)C(=O)[C@H](C2CCCC2)N(C)C(=O)C2(CCCC2)NC(=O)[C@@H]2CCCN2C(=O)[C@H](CCc2ccc(C(F)(F)F)c(Cl)c2)NC(=O)CN(CC)C(=O)[C@H](Cc2ccc(C)cc2)N(CC)C(=O)CN(C)C(=O)CN(C)C1=O [PP0028] ([NMeL]I[Sar][Sar][NEtPhe(4-Me)][NEtG][hPhe(3-Cl-4-CF3)]P[Ac5c][NMeGly(cPent)][NMeD]-Morpholide; lactam N-11) | C (A compound having a KD ratio of 0.1 or more and less than 3 is denoted as C) | C (A compound having a KD ratio of 0.1 or more and less than 3 is denoted as C) |
